Results as given in article PMC6286390, “Discovering de novo peptide substrates for enzymes using machine learning” (Nature Communications, 2018).
Entries after “also recorded” stand apart in the source; their conditions may differ.

Experiments:
B. subtilis Sfp = experiment: SPOT cellulose membrane peptide labeling with TAMRA-CoA by Sfp; assay type: biochemical, Bacillus subtilis; conditions: 10 µM PPTase, 40 µM TAMRA-CoA, 0.01% Triton X, 15 µM BSA, 50 mM Tris-HCl pH 8.0, 10 mM MgCl2, 16 h, 37 °C, fluorescence ex 532 nm/em 580 nm
Protocol: (§1) The peptides were synthesized on an amino-PEG-cellulose 10×15 cm^2 membrane and synthesized automatically by MultiPep RSi (INTAVIS Bioanalytical Instruments AG). After Fmoc cleavage with 20% 4-methyl piperidine (Sigma) in dimethylformamide (DMF), activated with 1 equiv. hydroxybenzotriazole and 2 equiv. N-methylpyrrolidone (NMP), and directly spotted on the membrane; after 15 min this step was repeated. The membrane was washed with DMF (3 × 3 min). Solutions of the Fmoc amino acids in NMP were spotted on the membrane (0.6 M solutions; 0.8 M solutions for C, H, N, Q, and R; triple coupling, 15 min each). The Fmoc group was removed from the spots, and the sequences of the peptides were completed using the standard SPOT synthesis protocol and followed by an N-terminal tag. […]
(§2) Synthesized membranes were deprotected with cleavage cocktail consisting of 94% trifluoroacetic acid (TFA), 2.5% water, 1% triisopropylsilane (Sigma), and 2.5% 1,2-ethanedithiol (Sigma) shaking at 2 h at room temperature. […] The membranes were rinsed liberally with TBST buffer, 0.1% TFA, and distilled deionized water before imaging on a Typhoon TRIO Variable Mode Imager (GE Healthcare BioSciences) at 50-µm resolution with 532 nm green laser excitation and 580 nm emission filter and a photomultiplier tube setting of 350 V. The membrane images were analyzed by the ImageJ software[37],[38].

S. coelicolor AcpS = experiment: SPOT cellulose membrane peptide labeling with TAMRA-CoA by AcpS; assay type: biochemical, Streptomyces coelicolor; conditions: 10 µM PPTase, 40 µM TAMRA-CoA, 0.01% Triton X, 15 µM BSA, 50 mM Tris-HCl pH 8.0, 10 mM MgCl2, 16 h, 37 °C, fluorescence ex 532 nm/em 580 nm
Protocol: as §1, §2

Sequence	labeling of membrane-bound peptide by Sfp (substrate / hit) (B. subtilis Sfp)	labeling of membrane-bound peptide by AcpS (substrate / hit) (S. coelicolor AcpS)
AVKMESLEYLDTM [4F01, Sfp-type peptide hit identified by POOL, round 4]	Sfp-type peptide hits; also recorded: specific to Sfp	
IHDGADSVVWLWSNC	neither a substrate for Sfp nor AcpS	neither a substrate for Sfp nor AcpS
WPEEGIESFMSVPPP [4T25, AcpS-type peptide hit identified by POOL, round 4]		AcpS-type peptide hits; also recorded: specific to AcpS
